Consider 10 compounds from ChEMBL document CHEMBL5291721, “A preclinical secondary pharmacology resource illuminates target-adverse drug reaction associations of marketed drugs” (Nat Commun, 2023).

For orientation: AC50 means the midpoint of the concentration-response curve, whichever way the signal moves. A high value points to weaker potency.

Assay [1] addresses T1, Muscarinic acetylcholine receptor M1 (Homo sapiens, UniProt P11229).
T1 sequence (P11229 whole entry): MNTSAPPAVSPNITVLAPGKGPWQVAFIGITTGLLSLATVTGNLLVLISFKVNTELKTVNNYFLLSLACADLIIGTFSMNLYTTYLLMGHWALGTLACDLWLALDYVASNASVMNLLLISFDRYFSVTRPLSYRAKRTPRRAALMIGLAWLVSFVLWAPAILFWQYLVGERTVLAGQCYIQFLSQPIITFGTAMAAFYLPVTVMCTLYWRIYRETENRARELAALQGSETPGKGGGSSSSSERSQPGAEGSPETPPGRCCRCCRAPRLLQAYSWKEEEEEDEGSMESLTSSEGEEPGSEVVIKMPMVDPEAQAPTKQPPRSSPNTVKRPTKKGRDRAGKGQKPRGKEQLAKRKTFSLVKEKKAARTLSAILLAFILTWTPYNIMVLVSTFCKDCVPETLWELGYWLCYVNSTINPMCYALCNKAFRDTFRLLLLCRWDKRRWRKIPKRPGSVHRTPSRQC
Format: functional, cell-based.

The target in assay [2] is Gamma-aminobutyric acid receptor subunit alpha-1 (Rattus norvegicus, UniProt P62813). In kind it is functional.
Gamma-aminobutyric acid receptor subunit alpha-1, sequence (P62813 whole entry): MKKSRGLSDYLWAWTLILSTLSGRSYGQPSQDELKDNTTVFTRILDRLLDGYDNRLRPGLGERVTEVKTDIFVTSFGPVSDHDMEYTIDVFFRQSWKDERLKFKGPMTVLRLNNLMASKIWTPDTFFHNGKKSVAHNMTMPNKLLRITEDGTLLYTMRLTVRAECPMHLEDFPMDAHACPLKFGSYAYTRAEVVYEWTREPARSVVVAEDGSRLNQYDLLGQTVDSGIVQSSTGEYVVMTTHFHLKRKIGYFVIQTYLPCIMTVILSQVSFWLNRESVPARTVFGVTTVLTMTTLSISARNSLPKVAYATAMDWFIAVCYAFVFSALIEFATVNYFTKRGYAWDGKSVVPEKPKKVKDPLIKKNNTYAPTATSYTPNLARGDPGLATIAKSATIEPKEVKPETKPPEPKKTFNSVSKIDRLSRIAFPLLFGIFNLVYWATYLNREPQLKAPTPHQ
Assay [3] has as its target Delta-type opioid receptor (Homo sapiens, UniProt P41143).
Assay [4] has as its target Histamine H2 receptor (Homo sapiens, UniProt P25021). In kind it is functional, cell-based.
Assay [5] has as its target T2, Amine oxidase [flavin-containing] A (Homo sapiens, UniProt P21397).
T2 sequence (P21397 whole entry): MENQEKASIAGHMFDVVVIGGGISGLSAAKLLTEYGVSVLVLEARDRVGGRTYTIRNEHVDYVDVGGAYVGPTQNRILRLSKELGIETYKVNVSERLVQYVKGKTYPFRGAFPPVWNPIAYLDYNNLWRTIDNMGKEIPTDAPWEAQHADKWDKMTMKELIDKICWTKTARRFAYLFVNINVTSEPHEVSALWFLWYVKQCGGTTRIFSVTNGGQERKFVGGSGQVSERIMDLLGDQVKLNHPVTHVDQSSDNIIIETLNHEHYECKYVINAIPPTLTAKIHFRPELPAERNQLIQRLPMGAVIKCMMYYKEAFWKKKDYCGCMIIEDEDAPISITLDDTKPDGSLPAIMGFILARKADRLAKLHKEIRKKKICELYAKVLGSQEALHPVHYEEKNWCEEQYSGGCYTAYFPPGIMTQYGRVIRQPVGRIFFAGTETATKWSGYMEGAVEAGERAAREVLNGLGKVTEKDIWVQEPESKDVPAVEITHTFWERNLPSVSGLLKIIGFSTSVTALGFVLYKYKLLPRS
In kind it is functional.

Assay [6] has as its target cGMP-inhibited 3',5'-cyclic phosphodiesterase 3A (Homo sapiens, UniProt Q14432). In kind it is functional.
Assay [7] has as its target 5-hydroxytryptamine receptor 2B (Homo sapiens, UniProt P41595). In kind it is functional, cell-based.
Assay [8] concerns the target T1, Muscarinic acetylcholine receptor M1. In kind it is functional, cell-based. This is another data set of the same source.
For assay [9], the target named is Cannabinoid receptor 1 (Homo sapiens, UniProt P21554). In kind it is functional, cell-based.
Cannabinoid receptor 1, sequence (P21554 whole entry): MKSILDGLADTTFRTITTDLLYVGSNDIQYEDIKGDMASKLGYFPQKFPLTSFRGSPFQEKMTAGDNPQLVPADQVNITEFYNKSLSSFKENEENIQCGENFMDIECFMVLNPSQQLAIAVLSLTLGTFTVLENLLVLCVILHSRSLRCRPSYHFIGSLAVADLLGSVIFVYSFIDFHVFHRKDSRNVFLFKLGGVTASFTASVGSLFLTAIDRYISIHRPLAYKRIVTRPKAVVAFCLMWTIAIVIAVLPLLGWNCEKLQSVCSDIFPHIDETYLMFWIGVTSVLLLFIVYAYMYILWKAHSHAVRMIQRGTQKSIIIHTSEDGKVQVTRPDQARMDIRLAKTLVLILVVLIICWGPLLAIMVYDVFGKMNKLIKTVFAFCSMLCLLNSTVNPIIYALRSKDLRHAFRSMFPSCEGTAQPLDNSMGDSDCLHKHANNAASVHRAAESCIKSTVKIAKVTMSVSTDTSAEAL
For assay [10], the target named is Sodium-dependent serotonin transporter (Homo sapiens, UniProt P31645).
Sodium-dependent serotonin transporter, sequence (P31645 whole entry): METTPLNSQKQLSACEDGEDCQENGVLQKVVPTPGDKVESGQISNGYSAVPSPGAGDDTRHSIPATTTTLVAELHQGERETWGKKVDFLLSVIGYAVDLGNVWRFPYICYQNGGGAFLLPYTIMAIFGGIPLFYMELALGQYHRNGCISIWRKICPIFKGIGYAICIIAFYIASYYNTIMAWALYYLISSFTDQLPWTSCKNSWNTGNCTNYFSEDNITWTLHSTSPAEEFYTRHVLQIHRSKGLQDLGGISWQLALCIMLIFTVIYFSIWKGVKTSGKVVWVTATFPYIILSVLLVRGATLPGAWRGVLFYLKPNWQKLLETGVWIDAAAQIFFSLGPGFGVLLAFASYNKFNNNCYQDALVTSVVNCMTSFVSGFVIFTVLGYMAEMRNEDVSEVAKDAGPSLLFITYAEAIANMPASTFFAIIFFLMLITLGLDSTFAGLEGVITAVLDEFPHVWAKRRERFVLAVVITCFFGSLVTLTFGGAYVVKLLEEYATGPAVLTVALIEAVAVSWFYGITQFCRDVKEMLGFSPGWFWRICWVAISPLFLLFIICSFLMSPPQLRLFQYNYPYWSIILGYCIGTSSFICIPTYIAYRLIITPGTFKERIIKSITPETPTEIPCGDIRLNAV
Note: assay procedure not described here.

Histamine H2 receptor, sequence (P25021 whole entry): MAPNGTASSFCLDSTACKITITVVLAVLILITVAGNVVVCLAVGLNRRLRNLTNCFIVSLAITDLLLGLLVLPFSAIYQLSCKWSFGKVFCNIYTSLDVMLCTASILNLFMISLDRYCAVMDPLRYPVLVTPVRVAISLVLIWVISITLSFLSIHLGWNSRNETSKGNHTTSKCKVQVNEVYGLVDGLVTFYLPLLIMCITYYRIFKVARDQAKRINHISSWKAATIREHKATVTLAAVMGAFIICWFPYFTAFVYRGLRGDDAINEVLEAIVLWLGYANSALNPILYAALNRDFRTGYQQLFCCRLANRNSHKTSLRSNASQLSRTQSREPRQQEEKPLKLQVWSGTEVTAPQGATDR
Delta-type opioid receptor, sequence (P41143 whole entry): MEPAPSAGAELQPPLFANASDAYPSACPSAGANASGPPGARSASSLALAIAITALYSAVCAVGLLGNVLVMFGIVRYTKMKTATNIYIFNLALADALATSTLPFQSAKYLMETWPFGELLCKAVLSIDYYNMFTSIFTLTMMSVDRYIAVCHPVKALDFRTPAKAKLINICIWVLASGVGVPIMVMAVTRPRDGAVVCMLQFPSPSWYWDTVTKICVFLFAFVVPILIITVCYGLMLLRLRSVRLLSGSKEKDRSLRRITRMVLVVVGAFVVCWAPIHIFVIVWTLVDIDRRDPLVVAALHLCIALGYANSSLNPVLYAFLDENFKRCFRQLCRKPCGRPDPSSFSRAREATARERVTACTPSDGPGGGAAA
5-hydroxytryptamine receptor 2B, sequence (P41595 whole entry): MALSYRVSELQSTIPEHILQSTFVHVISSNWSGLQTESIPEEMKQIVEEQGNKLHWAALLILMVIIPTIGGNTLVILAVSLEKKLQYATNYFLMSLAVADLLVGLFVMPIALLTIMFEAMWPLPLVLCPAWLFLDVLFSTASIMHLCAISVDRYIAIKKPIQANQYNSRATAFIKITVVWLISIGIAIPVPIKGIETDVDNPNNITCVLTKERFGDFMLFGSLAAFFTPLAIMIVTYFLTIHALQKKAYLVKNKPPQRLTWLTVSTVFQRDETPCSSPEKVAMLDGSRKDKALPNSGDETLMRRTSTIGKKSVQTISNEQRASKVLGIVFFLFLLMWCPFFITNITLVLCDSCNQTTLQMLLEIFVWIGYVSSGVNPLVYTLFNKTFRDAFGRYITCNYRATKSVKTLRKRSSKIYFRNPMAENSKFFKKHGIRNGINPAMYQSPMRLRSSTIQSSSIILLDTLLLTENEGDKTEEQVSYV
cGMP-inhibited 3',5'-cyclic phosphodiesterase 3A, sequence (Q14432 whole entry): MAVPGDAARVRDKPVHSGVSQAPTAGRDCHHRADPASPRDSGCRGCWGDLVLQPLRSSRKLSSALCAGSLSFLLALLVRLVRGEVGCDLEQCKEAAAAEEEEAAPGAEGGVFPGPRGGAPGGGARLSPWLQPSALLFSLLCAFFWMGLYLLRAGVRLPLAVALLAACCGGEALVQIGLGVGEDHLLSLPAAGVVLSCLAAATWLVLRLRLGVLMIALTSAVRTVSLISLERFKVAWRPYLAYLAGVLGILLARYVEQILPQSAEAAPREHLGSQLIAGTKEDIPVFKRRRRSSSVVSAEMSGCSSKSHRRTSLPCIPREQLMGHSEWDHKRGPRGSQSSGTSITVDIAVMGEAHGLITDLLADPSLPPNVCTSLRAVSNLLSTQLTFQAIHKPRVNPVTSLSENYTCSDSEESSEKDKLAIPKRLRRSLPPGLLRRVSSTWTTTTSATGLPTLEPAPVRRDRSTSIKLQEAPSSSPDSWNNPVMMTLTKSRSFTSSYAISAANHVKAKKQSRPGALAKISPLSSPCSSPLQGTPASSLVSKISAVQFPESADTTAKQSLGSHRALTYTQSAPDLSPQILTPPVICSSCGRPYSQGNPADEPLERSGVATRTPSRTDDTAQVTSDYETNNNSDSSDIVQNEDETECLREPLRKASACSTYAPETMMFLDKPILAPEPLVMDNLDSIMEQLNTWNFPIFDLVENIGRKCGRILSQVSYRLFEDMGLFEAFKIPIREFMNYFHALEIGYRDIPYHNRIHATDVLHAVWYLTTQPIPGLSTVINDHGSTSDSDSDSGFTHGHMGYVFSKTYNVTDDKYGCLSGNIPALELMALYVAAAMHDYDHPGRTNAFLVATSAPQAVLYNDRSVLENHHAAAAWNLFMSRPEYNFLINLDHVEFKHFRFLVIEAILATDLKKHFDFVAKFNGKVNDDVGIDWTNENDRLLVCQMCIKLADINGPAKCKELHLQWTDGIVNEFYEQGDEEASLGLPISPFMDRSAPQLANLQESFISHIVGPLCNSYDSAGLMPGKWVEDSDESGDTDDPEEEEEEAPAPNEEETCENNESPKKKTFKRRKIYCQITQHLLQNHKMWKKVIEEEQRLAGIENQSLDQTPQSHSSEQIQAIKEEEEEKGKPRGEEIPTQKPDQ

With `C[N+](C)(C)CCOP(=O)(O)OP(=O)([O-])OC[C@H]1O[C@@H](n2ccc(N)nc2=O)[C@H](O)[C@@H]1O` [CITICOLINE], the concentration at half-maximal activity (AC50) in assay [1], in [2], in assay [3], in assay [4], in assay [5] and in assay [6] was > 30 µM each time. Moreover, the AC50 in assay [7], in [8], in [9] and in assay [10] was > 30 µM in each case.
For `CCNC(=O)/C=C(C)/C=C/C=C(C)/C=C/c1c(C)cc(OC)c(C)c1C` [MOTRETINIDE], the AC50 was > 30 µM in assay [1], 16.6 µM in assay [8] and 28.3 µM in [10].
`C=CC(=O)Nc1cccc(Oc2nc(Nc3ccc(N4CCN(C)CC4)cc3)nc3ccsc23)c1` [OLMUTINIB]: the figures for the AC50 in [1], in [8] and in assay [10] were > 30 µM, 2.29 µM and > 30 µM, respectively.
In the case of `CCCCC1C(=O)N(c2ccccc2)N(c2ccc(O)cc2)C1=O` (configuration not stated) [OXYPHENBUTAZONE ANHYDROUS], the concentration at half-maximal activity (AC50) in assay [1], in [8] and in [10] was > 30 µM each time.
On to `O=C(O)CN(CCN(CC(=O)O)CC(=O)O)CCN(CC(=O)O)CC(=O)O` [PENTETIC ACID], for which the AC50 in assay [1] was > 30 µM; in assay [8] it was > 30 µM; in assay [10] it was 0.0429 µM.
With `Nc1cccc2c1C(=O)N(C1CCC(=O)NC1=O)C2=O` (configuration not stated) [POMALIDOMIDE], the AC50 in assay [1], in [8] and in assay [10] was > 30 µM throughout.
As to `C[Se]CC[C@H](N)C(=O)O` [SELENOMETHIONINE], the concentration at half-maximal activity (AC50) in [1], in assay [8] and in assay [10] was > 30 µM throughout.
`Cc1ccsc1C(=CCCN1CCC[C@@H](C(=O)O)C1)c1sccc1C` [TIAGABINE]: the half-maximal activity concentration (AC50) in assay [1], in [8] and in assay [10] was > 30 µM throughout.
As to `Cc1ccccc1C(=O)Nc1ccc(C(=O)N2CCCC(O)c3cc(Cl)ccc32)c(C)c1` (configuration not stated) [TOLVAPTAN], the half-maximal activity concentration (AC50) was > 30 µM in assay [1], 11.3 µM in assay [8] and > 30 µM in assay [10].
Regarding `CC[C@]12CCCN3CCc4c(n(c5ccccc45)[C@@](O)(C(=O)OC)C1)[C@@H]32` [VINCAMINE], the AC50 in assay [1], in [8] and in [10] was > 30 µM each time.
